Measurements as given in US20070037253A1, “Methods and compositions for treatment of arthritis and cancer” (priority 2003, published 2007).
Where a SMILES comes first, the peptide text is derived from it.

Experiments:
Format in all cases: biochemical
[1] = biological target: T1, purified human synovial sPLA2 (human Type IIA sPLA2) (Homo sapiens, UniProt P14555); assay: sPLA2 inhibition, 3H-arachidonate-labelled E. coli membrane assay; settings: for inhibition at 5 µM: read-out: % Inhibition (mean ± SD)
T1 construct: purchased Cayman Chemicals, USA
T1 sequence (P14555 21-144): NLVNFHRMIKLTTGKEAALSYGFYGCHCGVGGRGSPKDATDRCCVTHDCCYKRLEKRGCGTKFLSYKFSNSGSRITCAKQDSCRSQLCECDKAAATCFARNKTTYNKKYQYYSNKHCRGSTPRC
Protocol: In brief, [^3H] arachidonate-labeled E. coli membranes (0.005 mCi/mL; 5.8 μCi/μmol, NEN) were used as substrate, and 100 mM Tris-HCl—25 mM CaCl2, pH 7.5 solution as an assay buffer. The reaction mixture contained 20 μL of substrate, 0.85 pmole of purified human synovial sPLA2 (human Type IIA sPLA2, Cayman Chemicals, USA), and an increasing concentrations of the family of synthetic peptides derived from the sequence of PIP. The final volume of the reaction mixture was adjusted to 250 μL with an assay buffer. After incubation of the mixture (37° C., 1 h) and termination of the reaction with 750 μL of chilled PBS containing 1% BSA, microfuge tubes containing the samples were centrifuged (10,000 g at 4° C. for 15 min), and 500 μL aliquots of the supernatant taken to measure the amount of [^3H]-labeled arachidonate released from the E. coli membrane using liquid scintillation counting (Multipurpose Scintillation Counter LS 6500; Beckman, USA). As controls, sPLA2 was pre-incubated with the assay buffer alone. All samples, including controls, were performed in triplicate and plotted as the percentage inhibition relative to negative controls.
A sigmoid dose response curve was generated to allow calculation of the IC50 values. All samples were performed in triplicate. Results were analyzed by nonlinear regression with GraphPad Prism (version 2.01) and expressed as the percentage of inhibition relative to control values.

[2] = biological target: T2, human recombinant MMP-1 (Homo sapiens, UniProt P03956); assay: MMP-1 colorimetric assay (BIOMOL AK-404 QuantiZyme)
T2 construct: human recombinant MMP-1 catalytic domain in each well (15.3 U, 20 μL); purchased BIOMOL AK-404
T2 sequence (P03956 100-269 limits assumed): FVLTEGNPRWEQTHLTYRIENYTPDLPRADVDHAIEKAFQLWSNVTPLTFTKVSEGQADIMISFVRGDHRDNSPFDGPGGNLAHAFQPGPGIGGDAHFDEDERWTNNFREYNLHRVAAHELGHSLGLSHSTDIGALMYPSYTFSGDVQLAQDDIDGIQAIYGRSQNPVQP
Protocol: FIG. 3 illustrates the results of an assay on inhibition of human recombinant MMP-1 enzyme activity by various peptide mutants. (A) MMP-1 Activity Curves: The reaction velocity (V) was determined from the slope of the OD versus time (min) plot for each test inhibitor using the linear regression analysis. (∘), Human recombinant MMP-1 purified enzyme; (□), NNGH standard positive control MMP-1 selective inhibitor; (▾), P-NT.II; (▴), D60,65E dimer; (•), PIP [57-67] dimer; (▪), PIP [59-67] dimer. (B) MMP-1 Activity Inhibition Curves: Inhibition curves of various peptide mutants against the human MMP-1 activity. Results are expressed as the mean±SD (n=3).
Inhibition of MMP-1 enzymatic activity: Enzyme inhibition by peptide analogues was assessed by using MMP-1 Colorimetric assay kit for drug discovery (BIOMOL AK-404 QuantiZyme Assay system). Briefly, human recombinant MMP-1 catalytic domain in each well (15.3 U, 20 μL) was allowed to react either with the candidate peptide (test inhibitor) dissolved in DMSO (final 0.5% DMSO in assay buffer), or with the assay buffer alone (control) for 30 min at 37° C. Immediately following incubation, the reaction was initiated by adding the thiopeptide substrate solution in assay buffer (10 μL of 100 μM Ac-PLG-[2-mercapto-4-methyl-pentanoyl]-LG-OC2H5) into each well, and the absorbance at 412 nm continuously monitored for 10 min. 1 mM Ellman's reagent [5,5′-dithiobis (2-nitrobenzoic acid] in assay buffer (50 mM HEPES, 10 mM CaCl2, 0.05% Brij-35) was used as a colour developer in this assay system. The reaction velocity (V) was determined from the slope of the OD versus time (min) plot for each test inhibitor using the linear regression analysis (Graph Pad Prism, Version 2). Inhibition (%) was then calculated using the equation, [100]−[(V inhibitor/control)×100].

[3] = tested on: collagenase I (MMP-1); assay: Collagenase activity assay, collagen thin film (collagen type II substrate); settings: collagen thin film, collagen type II; peptide concentration not given
Protocol: Collagenase activity was assayed by collagen thin film method using collagen type II as substrate. IC50 values were graphically determined from the inhibition curves, constructed on the basis of the in vitro results of collagenase assays. Results are the mean±SD of 3 separate experiments done in triplicates. (•), P-NT.II; (□), PIP [59-67] dimer; (Δ), PIP [59-67} monomer; (∇), LY 315920.
Collagenase activity assay: Using collagen thin film as the substrate, a quantitative method was established to measure the enzymatic activity of the MMPs (principally collagenase). Collagen type II (Sigma) solution (4 μL, 3 mg/mL in 0.012 N HCl) was added to each well of 96-well plates and precipitated by slowly increasing the pH with 4 μL of H2O and 8 μL of 0.012 N NaOH. The plate was dried at 23° C. for 24 hr, washed with H2O, and dried again at 23° C., resulting in a thin film containing 12 μg of collagen that was tightly bound to the bottom of the wells. Enzymatic reactions of the collagenase I (with and without peptide inhibitors) against the collagen films were carried out in quadruplicate at 24° C. for 16 h. The digested portion of the film was washed away, while the undigested portion was fixed for 3 h with 0.1% Coomassie brilliant blue R in 10% acetic acid and 45% methanol, and the wells washed and dried.

[4] = fixed peptide concentration (5 μM), 3H-labelled E. coli membrane assay

Molecule	inhibition at 5 µM [1, 4] [%]	Collagenase (% Inhibition) [3] [%]	further results
CC[C@H](C)[C@H](NC(=O)[C@H](CCC(=O)O)NC(=O)[C@@H](N)C(C)C)C(=O)N[C@@H](Cc1c[nH]cn1)C(=O)N[C@H](C(=O)N[C@@H](Cc1c[nH]c2ccccc12)C(=O)N[C@@H](CCC(=O)O)C(=O)NCC(=O)N[C@H](C(=O)N[C@H](C(=O)N[C@@H](CCC(=O)O)C(=O)N[C@H](C(=O)N[C@@H](Cc1c[nH]cn1)C(=O)N[C@H](C(=O)N[C@@H](Cc1c[nH]c2ccccc12)C(=O)N[C@@H](CCC(=O)O)C(=O)NCC(=O)N[C@H](C(=O)O)C(C)C)C(C)C)[C@@H](C)CC)C(C)C)C(C)C)C(C)C [D60,65E-PIP [59-67] dimer] (H-VEIHVWEGVVEIHVWEGV-OH; N-terminus and C-terminus assumed)	68.5 ± 3.94		IC50 [1]: 4230 ± 670 nM; IC50 [2]: 3740 nM
CC[C@H](C)[C@H](NC(=O)[C@H](CCC(=O)O)NC(=O)[C@@H](N)C(C)C)C(=O)N[C@@H](Cc1c[nH]cn1)C(=O)N[C@H](C(=O)N[C@@H](Cc1c[nH]c2ccccc12)C(=O)N[C@@H](CCC(=O)O)C(=O)NCC(=O)N[C@H](C(=O)O)C(C)C)C(C)C [D60,65E-PIP [59-67]] (H-VEIHVWEGV-OH; N-terminus and C-terminus assumed)	61.4 ± 4.32	5.4 ± 1.8	
CC[C@H](C)[C@H](NC(=O)[C@H](CC(=O)O)NC(=O)[C@@H](N)C(C)C)C(=O)N[C@@H](Cc1c[nH]cn1)C(=O)N[C@H](C(=O)N[C@@H](Cc1c[nH]c2ccccc12)C(=O)N[C@@H](C)C(=O)NCC(=O)N[C@H](C(=O)O)C(C)C)C(C)C [D65A-PIP [59-67], VDIHVW (A) GV] (H-VDIHVWAGV-OH; N-terminus and C-terminus assumed)	48.5 ± 2.34		
CC[C@H](C)[C@H](NC(=O)[C@H](CC(=O)O)NC(=O)[C@@H](N)C(C)C)C(=O)N[C@@H](Cc1c[nH]cn1)C(=O)N[C@H](C(=O)N[C@@H](Cc1c[nH]c2ccccc12)C(=O)N[C@@H](CCC(=O)O)C(=O)NCC(=O)N[C@H](C(=O)O)C(C)C)C(C)C [D65E-PIP [59-67], VDIHVW (E) GV] (H-VDIHVWEGV-OH; N-terminus and C-terminus assumed)	57.6 ± 3.22		
CC[C@H](C)[C@H](NC(=O)[C@H](CC(=O)O)NC(=O)[C@@H](N)C(C)C)C(=O)N[C@@H](Cc1c[nH]cn1)C(=O)N[C@H](C(=O)N[C@@H](Cc1c[nH]c2ccccc12)C(=O)N[C@@H](CO)C(=O)NCC(=O)N[C@H](C(=O)O)C(C)C)C(C)C [D655-PIP [59-67], VDIHVW (S) GV] (H-VDIHVWSGV-OH; N-terminus and C-terminus assumed)	52.5 ± 1.08		
CC[C@H](C)[C@H](NC(=O)[C@H](Cc1ccc(O)cc1)NC(=O)[C@@H](NC(=O)CNC(=O)[C@H](CC(=O)O)NC(=O)[C@H](Cc1c[nH]c2ccccc12)NC(=O)[C@@H](NC(=O)[C@H](Cc1cnc[nH]1)NC(=O)[C@@H](NC(=O)[C@H](CC(=O)O)NC(=O)[C@@H](NC(=O)[C@H](CCCNC(=N)N)NC(=O)CNC(=O)[C@@H](N)CC(C)C)C(C)C)[C@@H](C)CC)C(C)C)C(C)C)C(=O)N[C@@H](CCCNC(=N)N)C(=O)NCC(=O)N[C@@H](CCCNC(=N)N)C(=O)O [P-NT.II] (H-LGRVDIHVWDGVYIRGR-OH)			IC50 [2]: 1550 nM
CC[C@H](C)[C@H](NC(=O)[C@H](CC(=O)O)NC(=O)[C@@H](NC(=O)[C@H](CCCNC(=N)N)NC(=O)CN)C(C)C)C(=O)N[C@@H](Cc1c[nH]cn1)C(=O)N[C@H](C(=O)N[C@@H](Cc1c[nH]c2ccccc12)C(=O)N[C@@H](CC(=O)O)C(=O)NCC(=O)N[C@H](C(=O)NCC(=O)N[C@@H](CCCNC(=N)N)C(=O)N[C@H](C(=O)N[C@@H](CC(=O)O)C(=O)N[C@H](C(=O)N[C@@H](Cc1c[nH]cn1)C(=O)N[C@H](C(=O)N[C@@H](Cc1c[nH]c2ccccc12)C(=O)N[C@@H](CC(=O)O)C(=O)NCC(=O)N[C@H](C(=O)O)C(C)C)C(C)C)[C@@H](C)CC)C(C)C)C(C)C)C(C)C [PIP [57-67] dimer] (H-GRVDIHVWDGVGRVDIHVWDGV-OH; N-terminus and C-terminus assumed)	76.4 ± 3.87		IC50 [1]: 2430 ± 760 nM; IC50 [2]: 970 nM
CC[C@H](C)[C@H](NC(=O)[C@H](CC(=O)O)NC(=O)[C@@H](NC(=O)[C@@H](N)CCCNC(=N)N)C(C)C)C(=O)N[C@@H](Cc1c[nH]cn1)C(=O)N[C@H](C(=O)N[C@@H](Cc1c[nH]c2ccccc12)C(=O)N[C@@H](CC(=O)O)C(=O)NCC(=O)N[C@H](C(=O)O)C(C)C)C(C)C [PIP [58-67]] (H-RVDIHVWDGV-OH)		29.4 ± 6.0	
CC[C@H](C)[C@H](NC(=O)[C@H](CC(=O)O)NC(=O)[C@@H](N)C(C)C)C(=O)N[C@@H](Cc1cnc[nH]1)C(=O)N[C@H](C(=O)N[C@@H](Cc1c[nH]c2ccccc12)C(=O)N[C@@H](CC(=O)O)C(=O)NCC(=O)N[C@H](C(=O)N[C@H](C(=O)N[C@@H](CC(=O)O)C(=O)N[C@H](C(=O)N[C@@H](Cc1cnc[nH]1)C(=O)N[C@H](C(=O)N[C@@H](Cc1c[nH]c2ccccc12)C(=O)N[C@@H](CC(=O)O)C(=O)NCC(=O)N[C@H](C(=O)O)C(C)C)C(C)C)[C@@H](C)CC)C(C)C)C(C)C)C(C)C [PIP [59-67] dimer] (H-VDIHVWDGVVDIHVWDGV-OH)			IC50 [2]: 902 nM
DIHVWDG [PIP [60-66], P-NT.II analogue]		4.7 ± 2.6	
GRVDIHVWDGV [PIP [57-67], P-NT.II analogue]		65.1 ± 3.3	
GRVDIHVWDGVYIRGR [PIP [57-72], P-NT.II analogue]		39.8 ± 3.5	
LGRVDIHVWDGVY [PIP [56-68], P-NT.II analogue]		61.6 ± 7.6	
LGRVDIHVWDGVYI [PIP [56-69], P-NT.II analogue]		59.8 ± 6.2	
LGRVDIHVWDGVYIR [PIP [56-70], P-NT.II analogue]		60.6 ± 4.5	
LGRVDIHVWDGVYIRG [PIP [56-71], P-NT.II analogue]		62.8 ± 6.6	
RVDIHVWDGVYIRGR [PIP [58-72], P-NT.II analogue]		23.3 ± 2.9	
VDIHVW (βD) GV [β-Asp65-PIP [59-67]]			% Inhibition (mean ± SD) [1, 4]: 49.71 ± 3.01%
VDIHVWDGVYIRGR [PIP [59-72], P-NT.II analogue]		14.5 ± 2.4	
